Calls of active or inactive are those of the source. No cut-off for these calls is given here.
Columns and labels:
[1] = Inhibition of TRF2 expression in human MG-63 cells at 2 uM measured after 48 hrs by Western blot analysis relative to control; format: functional
[2] = Cytotoxicity against […] MLO-Y4 cells assessed as cell viability incubated for 48 hrs by MTT assay; format: toxicity, cell-based; conditions: mouse
U2OS [3] = test: Induction of apoptosis in human U2OS cells assessed as reduction in TRF2 foci at 2 to 4 microM by Immunofluorescence based FISH assay; format: functional, cell-based; conditions: dose 2-4 µM
U2OS [4] = test: Downregulation of TRF expression levels in human U2OS cells measured after 48 hrs by Western blot analysis; format: functional, cell-based; conditions: dose 2-4 µM
U2OS [5] = test: Induction of apoptosis in human U2OS cells assessed as viable cells at 2 uM measured after 48 hrs annexin-V and propidium iodide staining based flow cytometry analysis (reference value: 89.2%); format: functional; conditions: read-out: Activity
U2OS [6] = test: Induction of apoptosis in human U2OS cells assessed as late apoptotic cells at 2 uM measured after 48 hrs annexin-V and propidium iodide staining based flow cytometry analysis (reference value: 5.94%); format: functional
U2OS [7] = test: Induction of apoptosis in human U2OS cells assessed as late apoptotic cells at 4 uM measured after 48 hrs annexin-V and propidium iodide staining based flow cytometry analysis (reference value: 5.94%); format: functional
U2OS [8] = test: Induction of apoptosis in human U2OS cells assessed as necrotic cells at 4 uM measured after 48 hrs annexin-V and propidium iodide staining based flow cytometry analysis (reference value: 2.46%); format: functional
MG-63 [9] = test: Induction of apoptosis in human MG-63 cells assessed as early apoptotic cells at 4 uM measured after 48 hrs annexin-V and propidium iodide staining based flow cytometry analysis (reference value: 0.66%); format: functional
U2OS [10] = test: Antiproliferative activity against human U2OS cells assessed as reduction in cell viability at 2 to 4 uM measured for 8 days by PDL assay; format: functional, cell-based; conditions: dose 2-4 µM, time 8.0 day
MG-63 [11] = test: Antiproliferative activity against human MG-63 cells assessed as reduction in cell viability at 2 to 4 uM measured for 8 days by PDL assay; format: functional, cell-based; conditions: dose 2-4 µM, time 8.0 day
U2OS [12] = test: Induction of apoptosis in human U2OS cells assessed as reduction in colocalization of TRF2 with telomere at 2 to 4 microM by Immunofluorescence based FISH assay; format: functional, cell-based; conditions: dose 2-4 µM
MG-63 [13] = test: Induction of apoptosis in human MG-63 cells assessed as reduction in colocalization of TRF2 with telomere at 2 to 4 microM by Immunofluorescence based FISH assay; format: functional, cell-based; conditions: dose 2-4 µM
MG-63 [14] = test: Induction of DNA damage response in human MG-63 cells assessed as reduction in TRF2 expression by measuring accumulation of telomere-free ends at 2 to 4 uM by FITC/DAPI based Quantitative FISH (Q-FISH) assay; format: functional, cell-based; conditions: dose 2-4 µM
MG-63 [15] = test: Induction of DNA damage in human MG-63 cells assessed as increase in 53BP1 foci by Immunofluorescence based FISH assay; format: functional, cell-based; conditions: dose 2-4 µM
U2OS [16] = test: Induction of DNA damage response in human U2OS cells assessed as telomere dysfunction by measuring telomere length shortening at 2 to 4 uM by Immunofluorescence based FISH assay; format: functional, cell-based; conditions: dose 2-4 µM
U2OS [17] = test: Induction of DNA damage in human U2OS cells assessed as increase in 53BP1 foci by Immunofluorescence based FISH assay; format: functional, cell-based; conditions: dose 2-4 µM
MG-63 [18] = test: Induction of DNA damage in human MG-63 cells assessed as increase in telomere dysfunction-foci at 4 uM by Immunofluorescence based FISH assay; format: functional, cell-based
U2OS [19] = test: Induction of DNA damage in human U2OS cells assessed as upregulation of gamma-H2AX level by Immunofluorescence based FISH assay; format: functional, cell-based; conditions: dose 2-4 µM
MG-63 [20] = test: Induction of DNA damage in human MG-63 cells assessed as upregulation of gamma-H2AX level by Immunofluorescence based FISH assay; format: functional, cell-based; conditions: dose 2-4 µM
MG-63 [21] = test: […] inhibition of TRF2 expression in human MG-63 cells at 4 uM measured upto 12 hrs measured after drug washout by Western blot analysis; format: functional, cell-based
U2OS [22] = test: Inhibition of TRF2 expression in human U2OS cells by co-immunoprecipitation based Western blot analysis; format: functional, cell-based
[23] = Acute toxicity in mouse assessed as aspartate transaminase level (AST) level in serum at 30 to 90 mg/kg, po single dose measured for 7 days; format: organism-based; conditions: in vivo, 168 h, dose 30-90 mg/kg, time 7 day
[24] = Acute toxicity in mouse assessed as creatinine (Cr) level in serum at 30 to 90 mg/kg, po single dose measured for 7 days; format: organism-based; conditions: in vivo, 168 h, dose 30-90 mg/kg, time 7 day
[25] = Acute toxicity in mouse assessed as change in weight of heart at 30 to 90 mg/kg, po single dose measured for 7 days; format: organism-based; conditions: in vivo, 168 h, dose 30-90 mg/kg, time 7 day
[26] = Acute toxicity in mouse assessed as change in weight of liver at 30 to 90 mg/kg, po single dose measured for 7 days; format: organism-based; conditions: in vivo, 168 h, dose 30-90 mg/kg, time 7 day
[27] = Toxicity in female BALB/c mouse model xenografted with human MG-63 cells assessed as drug tolerance at 10 to 60 mg/kg, via oral gavage administered once a day for 3 weeks; format: organism-based; conditions: in vivo, 504 h, dose 10-60 mg/kg
[28] = Toxicity in female BALB/c mouse model xenografted with human MG-63 cells assessed as effect on body weight at 10 to 60 mg/kg, via oral gavage administered once a day for 3 weeks; format: organism-based; conditions: in vivo, 504 h, dose 10-60 mg/kg
MG-63 [29] = test: Antitumor activity against human MG-63 cells xenografted in female BALB/c mouse model assessed as reduction in Ki67 level in tumor treated via oral gavage administered once a day for 3 weeks by IHC analysis; format: functional, cell-based; conditions: dose 10-60 mg/kg

COc1cc(OC)c(C(=O)/C=C/c2cccc(Br)c2)c(OC)c1
inhibition at 2 µM [1]: 54%
IC50 at 48 h [2]: 12.3 µM
Activity (U2OS [3]): Active
Activity (U2OS [4]): Dose-dependent-effect
viability at 2 µM (U2OS [5]): 67.7%
Activity (U2OS [6]): 18.3%
Activity (U2OS [7]): 16.3%
Activity (U2OS [8]): 0.523%
Activity (MG-63 [9]): 15.2%
Activity (U2OS [10]): Active
Activity (MG-63 [11]): Active
Activity (U2OS [12]): Active
Activity (MG-63 [13]): Active
Activity (MG-63 [14]): Active
Activity (MG-63 [15]): Dose-dependent-effect
Activity (U2OS [16]): Dose-dependent-effect
Activity (U2OS [17]): Dose-dependent-effect
Activity (MG-63 [18]): Active
Activity (U2OS [19]): Dose-dependent-effect
Activity (MG-63 [20]): Dose-dependent-effect
Activity (MG-63 [21]): Active; Returned To Control Levels Within 4 Hrs
inhibition (U2OS [22]): Active
Activity [23]: Non-toxic
Activity [24]: Non-toxic
Activity [25]: Non-toxic
Activity [26]: Non-toxic
Activity [27]: Non-toxic
Activity [28]: Non-toxic
Activity (MG-63 [29]): Dose-dependent-effect; Compound Showed Significantly Stronger Effect Than Ar And Fkb04

From ChEMBL document CHEMBL6153097, “Design, synthesis, and biological evaluation of Flavokavain B derivatives as potent TRF2 inhibitors for the treatment of Osteosarcoma” (Eur J Med Chem, 2025)
